The values below come from PMC5618341, “Controlled inhibition of methyltransferases using photoswitchable peptidomimetics: towards an epigenetic regulation of leukemia” (Chemical Science, 2017).

Read-outs that look alike come from different tables or passages of the source. Starred links: 1 amine or outer side, 2 acyl side, 3 side chain; linkers in the order of their positions; H or OH if unused. Non-standard residues stand in square brackets, D forms with d. Residues, ends and D or L forms follow the SMILES beside them. AMPB = O=C(c1ccc(N=Nc2ccc(CN[*:1])cc2)cc1)[*:2]; Ahx = NCCCCCC(=O)O; βAla = NCCC(=O)O

Series [1] concerns the target MLL1 core complex (MLL1, WDR5, RbBP5, and ASH2L) (Homo sapiens, UniProt P61964). The following applies: cis vs trans.
Description: To test this, we studied the inhibition of MLL1 H3K4 methyltransferase activity through the previously reported in vitro HMT assay using the MLL1 core complex (i.e. MLL1, WDR5, RbBP5, and ASH2L) and the H3 20mer peptide as substrate.[17]
In Vitro Histone Methyltransferase (HMT) Assay
The HMT assay was performed, as previously described[25] with slight modifications, in 50 mM Tris pH 8.0, 50 mM NaCl, 1.0 mM DTT, 5 mM MgCl2 at room temperature. Each reaction contained 1.5 μM of the cofactor 3H-S-adenosylmethionine (Perkin-Elmer). H31-21 peptide was used as the substrate at 250 μM. […] Reactions were initiated by addition of the H3/SAM and allowed to proceed for 60 min before preparing scintillation counting. To count samples, reactions were spotted on separate squares of P81 filter paper (Millipore) and precipitated by submerging in freshly prepared 50 mM sodium bicarbonate buffer pH = 9.0. After washing and drying, the samples were vortexed in Ultima Gold scintillation fluid and counted.
For series [2], the target named is T1, WDR5Δ23 (Homo sapiens, UniProt P61964).
T1 construct: His6-SUMO (N, cleaved yes); made in house; host or cells: E. coli DH5α (so in the source)
As to the kind of experiment: Fluorescence polarization (FP)-based competitive binding assay. (In fluorescence polarisation assays a small probe gives low polarisation when free and higher when bound to something large.)

Series [3] is described as follows: Proliferation / cell viability assay (CellTiter-Glo). The following applies: trans isomer, 2.5 μM concentration, 96 h; read-out: viable cells. Type of series: cell-based, mouse. Here is the method: We initially studied the cellular uptake and cell viability of our compounds in murine MLL-AF9-transduced mouse bone marrow cells (Fig. 5). In line with our expectations, peptidomimetics 16 and 17 that contained peptide 7 within their sequence are the ones that inhibited the cell proliferation of leukemia. […] Thus, while in the case of the trans isomer of peptidomimetic 16 we already determined less than 50% of viable cells at 2.5 μM concentration, with the WIN-containing conjugates 20 and 21 we measured 87% and 96% of viable cells at 50 μM concentration, respectively.
(§1) We then examined the potential of 16 and 17 to control externally the cellular response in proliferation assays. Thus, both isomers of both peptidomimetics were incubated at different concentrations for four days. After two days of incubation, the cells containing the cis isomers were irradiated at 430 nm for 90 seconds in a single isomerization cycle with a custom-made 6-well plate LED array.
MLL-AF9-transduced mouse bone marrow was cultured in IMDM medium + 15% FBS and supplemented with 10 ng/mL interleukin-3 (IL-3) at each passage, every other day.
DMSO) isomers, of peptides 7, 16, 17, as well as the peptides 18 and 19 were diluted from stock to culture media containing a 0.1% DMSO final concentration. For viability assays, […]
72 h and DMSO as control . For the cis-trans group, after 48 h treatment with cis peptides, the plate was irradiated at […] for 90 sec and continued to culture for 2 days in the dark.
Viability was determined using the CellTiter-Glo Kit (Promega) according to the a a ’ d . was monitored on a Molecular Devices plate reader.

Series [4] can be described thus: Stability against GSH reduction. Type of series: physicochemical. Conditions: 10 mM GSH, four days, kept in the dark. Here is the method: as §1
H-bond cut off < 3.5 Å, Van der Waals: […]. N 3.81
Evaluation of Stability against GSH-reduction of Peptides
To test the stability of the AMPB-containing peptides 16 and 17 against reduction by glutathione (GSH), the peptides were incubated with GSH for 4 days.
Figure S72. Left: HPLC chromatograms of peptides, incubated with 10 mM GSH, recorded after different time periods. Left: peptide 16. Right: peptide 17. […]
peptides 16 and 17 (10 μM) in 0.1 M phosphate buffer pH = 7 were mixed giving final concentrations of 10 mM of GSH and 9.6 μM of the peptides, respectively. After different time periods, HPLC chromatograms of these mixtures were recorded (gradient: 5-40% B) (Figure […]
In Vitro Methyl Transferase Assay with MLL1 Core Complex
Full length constructs of both, RbBP5 (residues 1−538) and Ash2L (residues 1−635), were used for expression. […] MLL1, WDR5, RbBP5, and ASH2L were expressed as His-SUMO fusions from the pET28A-SUMO vector in BL21 DE3 pLyss codon (+) cells at 16 °C overnight. […]

Series [5] concerns Deptor gene (MLL1 target gene). As to the kind of experiment: Real-time PCR of Deptor mRNA expression. Type of series: cell-based, mouse. Conditions: 10 μM, 96 h, RT-PCR, standardized to GAPDH, vs Mock. The source says: Finally, we tested whether our probe acts as an optoepi-genetic inhibitor and controls expression of MLL1 target genes. We used the Deptor gene as a reporter, given its importance in hematopoiesis and leukemogenesis,[51],[52] as well as significant regulation by MLL1 inhibition.[53] To this end, we examined Deptor expression by real-time PCR (RT-PCR). […] Of note, a small but significant (p = 0.008) difference between cis and trans isomers was observed. […] There is no statistically significant difference between cis isomer of 17 and the control.
Fig. 8 Relative Deptor mRNA expression levels in murine MLL-AF9-transduced mouse bone marrow cells after 96 h of incubation at 10 μM; they were analysed by RT-PCR and standardized to the endogenous GAPDH control. The significance is corroborated by the p-value.
Real Time Quantitative PCR Analysis of Deptor Gene
Murine MLL1-AF9 transformed bone marrow cells were obtained by transducing normal murine bone marrow cells with MLL1-AF9 oncogene according to the procedures described […]
100 mM stock) isomers, of peptides 7, 16, 17, as well as the peptides 18 and 19 were […]
The transformed cells were treated with different concentrations of the respective peptide (1.0, 5.0, 10 μM) and Mock (0.1% DMSO), giving a final concentration of 0.1% DMSO in all the samples. […] Relative quantification of each gene transcript was carried out as described previously.[28] […]
In general terms: In qPCR the cycle at which signal appears reflects the starting amount.

For series [6], the target named is T1, WDR5Δ23. The arrangement: method as in PMID 20575550. Conditions: interaction with WDR5; cited from earlier work.
Where [7] appears, read: non-irradiated peptide (trans isomer), 72 nM WDR5Δ23, 20 nM tracer 22, read-out: IC50, non-irradiated (trans).
[8] abbreviates: non-irradiated peptide (trans isomer), 72 nM WDR5Δ23, 20 nM tracer 22, read-out: Ki, non-irradiation (trans).

As a reminder, the IC50 is the concentration at which inhibition is half-maximal. Broadly, the Ki is the dissociation constant of the complex between target and ligand, obtained from inhibition or displacement. `CC(C)C[C@H](NC(=O)[C@H](Cc1c[nH]cn1)NC(=O)[C@@H](NC(=O)c1ccc(N=Nc2ccc(CNC(=O)[C@H](C)NC(=O)[C@H](CCCNC(=N)N)NC(=O)[C@H](C)NC(=O)[C@@H](N)CO)cc2)cc1)C(C)C)C(=O)N[C@@H](CCCNC(=N)N)C(=O)N[C@@H](CCCCN)C(=O)N[C@@H](CO)C(N)=O` [peptide 7, H2N-SARAXVHLRKS-CONH2] (H-SARA[AMPB]VHLRKS-NH2): in series [1], the “difference in IC50 between both isomers” value is given as “more than 15 fold”. Besides, the half-maximal inhibitory concentration (IC50) on WDR5Δ23 [2] (IC50 cis (with 5 nM tracer), cis isomer (366 nm), 20 nM WDR5Δ23, 5 nM tracer 22) was 147 ± 14 nM; on WDR5Δ23 [2] (IC50 trans (with 5 nM tracer), trans isomer, 20 nM WDR5Δ23, 5 nM tracer 22) it was 57 ± 11 nM; on WDR5Δ23 [2] (setting [7]), 146 ± 21 nM. The inhibition constant Ki on WDR5Δ23 [2] (Ki cis (with 5 nM tracer), cis isomer (366 nm), 20 nM WDR5Δ23, 5 nM tracer 22) turned out to be 6.37 ± 1 nM; at WDR5Δ23 [2] (Ki trans (with 5 nM tracer), trans isomer, 20 nM WDR5Δ23, 5 nM tracer 22), 2.03 ± 0.42 nM; on WDR5Δ23 [2] (setting [8]), 1.25 ± 0.36 nM.
For the molecule `CC(C)C[C@H](NC(=O)[C@H](Cc1c[nH]cn1)NC(=O)[C@@H](NC(=O)c1ccc(N=Nc2ccc(CNC(=O)[C@H](C)NC(=O)[C@H](CCCNC(=N)N)NC(=O)[C@H](C)NC(=O)[C@@H](N)CO)cc2)cc1)C(C)C)C(=O)N[C@@H](CCCNC(=N)N)C(=O)N[C@@H](CCCCN)C(=O)N[C@@H](CO)C(=O)N[C@@H](CCCNC(=N)N)C(=O)N[C@@H](CCCNC(=N)N)C(=O)N[C@@H](CCCNC(=N)N)C(=O)N[C@@H](CCCNC(=N)N)C(=O)N[C@@H](CCCNC(=N)N)C(=O)N[C@@H](CCCNC(=N)N)C(=O)N[C@@H](CCCNC(=N)N)C(=O)N[C@@H](CCCNC(=N)N)C(N)=O` [peptide 16, H2N-SARA-AMPB-VHLRKS-R8-NH2] (H-SARA[AMPB]VHLRKSRRRRRRRR-NH2), the viability at 2.5 µM in series [3] is less than 50%. In addition, the half-maximal inhibitory concentration (IC50) on WDR5Δ23 [2] (setting [7]) stood at 135 ± 5 nM. For the same molecule, at WDR5Δ23 [2] (setting [8]), the Ki is 1.18 ± 0.095 nM. For the same molecule, the “stability of cis isomer against glutathione” value in series [4] is “suitable cis/trans ratio”.
On to `CC(C)C[C@H](NC(=O)[C@H](Cc1c[nH]cn1)NC(=O)[C@@H](NC(=O)c1ccc(N=Nc2ccc(CNC(=O)[C@H](C)NC(=O)[C@H](CCCNC(=N)N)NC(=O)[C@H](C)NC(=O)[C@@H](N)CO)cc2)cc1)C(C)C)C(=O)N[C@@H](CCCNC(=N)N)C(=O)N[C@@H](CCCCN)C(=O)N[C@@H](CO)C(=O)N[C@@H](CCCNC(=N)N)C(=O)NCCCCCC(=O)N[C@@H](CCCNC(=N)N)C(=O)N[C@@H](CCCNC(=N)N)C(=O)NCCCCCC(=O)N[C@@H](CCCNC(=N)N)C(=O)N[C@@H](CCCNC(=N)N)C(=O)NCCCCCC(=O)N[C@@H](CCCNC(=N)N)C(=O)N[C@@H](CCCNC(=N)N)C(=O)NCCCCCC(=O)N[C@@H](CCCNC(=N)N)C(=O)NCCCCCC(=O)NCCC(N)=O` [peptide 17, H2N-SARA-AMPB-VHLRKS-(RahxR)4RAhxB-NH2] (H-SARA[AMPB]VHLRKSR[Ahx]RR[Ahx]RR[Ahx]RR[Ahx]R[Ahx][βAla]-NH2), for which the half-inhibitory concentration (IC50) on WDR5Δ23 [2] (setting [7]) was 120 ± 25 nM. The Ki on WDR5Δ23 [2] (setting [8]) was 0.925 ± 0.39 nM. Besides, the “stability of cis isomer against glutathione” value in series [4] is on record as “suitable cis/trans ratio”.
With `N=C(N)NCCC[C@H](NC(=O)[C@H](CCCNC(=N)N)NC(=O)[C@H](CCCNC(=N)N)NC(=O)[C@H](CCCNC(=N)N)NC(=O)[C@H](CCCNC(=N)N)NC(=O)[C@H](CCCNC(=N)N)NC(=O)[C@H](CCCNC(=N)N)NC(=O)[C@@H](N)CCCNC(=N)N)C(N)=O` [peptide 18], the “Deptor mRNA expression (in words)” value in series [5] was “not affected”.
On the same count and under the same terms, with `N=C(N)NCCC[C@H](NC(=O)CCCCCNC(=O)[C@H](CCCNC(=N)N)NC(=O)[C@H](CCCNC(=N)N)NC(=O)CCCCCNC(=O)[C@H](CCCNC(=N)N)NC(=O)[C@H](CCCNC(=N)N)NC(=O)CCCCCNC(=O)[C@H](CCCNC(=N)N)NC(=O)[C@H](CCCNC(=N)N)NC(=O)CCCCCNC(=O)[C@@H](N)CCCNC(=N)N)C(=O)NCCCCCC(=O)NCCC(N)=O` [peptide 19] (H-R[Ahx]RR[Ahx]RR[Ahx]RR[Ahx]R[Ahx][βAla]-NH2) the entry was “not affected”.
Turning to Ac-ARAEVHLRKS-NH2 [peptide 2], the inhibitory constant (Ki) with WDR5Δ23 [6] is 3 nM.
